Source: PMC11191095, “QSAR Reveals Decreased Lipophilicity of Polar Residues Determines the Selectivity of Antimicrobial Peptide Activity” (ACS Omega, 2024)
Where a SMILES comes first, the peptide text is derived from it.

What was measured:
Experiment in all cases: microbe, parasite or virus in culture
E. coli NCTC 12923 = assay type: cell-based, Escherichia coli; conditions: E. coli NCTC 12923 (S)
How it was run: (§1)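 Peptides 128→2 μg/mL, 2-fold series; inoculum ~5 × 10^5 CFU/mL from overnight culture (OD600 0.01, mixed 1:1). MHB non-cation-adjusted for bacteria, RPMI 1640 + 2% glucose for fungi. 37 °C, 20 h, OD600. MIC50/MIC90 at 50%/90% inhibition; n ≥ 3.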

E. coli LEC001 = assay type: cell-based, Escherichia coli; conditions: E. coli LEC001 (R)
How it was run: as §1

C. auris TDG 1912 = assay type: cell-based, Candida auris; conditions: C. auris TDG 1912
How it was run: as §1

C. tropicalis NCPF 8760 = assay type: cell-based; conditions: C. tropicalis NCPF 8760
How it was run: as §1

[1] = system: C. parapsilosis NCPF 3209; assay type: cell-based; conditions: C. parapsilosis NCPF 3209
How it was run: as §1

C. glabrata NCPF 8018 = assay type: cell-based; conditions: C. glabrata NCPF 8018
How it was run: as §1

C. albicans NCPF 3281 = assay type: cell-based; conditions: C. albicans NCPF 3281
How it was run: as §1

C. krusei NCPF 3876 = assay type: cell-based; conditions: C. krusei NCPF 3876
How it was run: as §1

A. baumannii AYE = assay type: cell-based, Acinetobacter baumannii; conditions: A. baumannii AYE (R)
How it was run: as §1

A. baumannii ATCC 17978 = assay type: cell-based, Acinetobacter baumannii; conditions: A. baumannii ATCC 17978 (S)
How it was run: as §1

K. pneumoniae M6 = assay type: cell-based, Klebsiella pneumoniae; conditions: K. pneumoniae M6 (S)
How it was run: as §1

K. pneumoniae NCTC 13368 = assay type: cell-based, Klebsiella pneumoniae; conditions: K. pneumoniae NCTC 13368 (R)
How it was run: as §1

S. aureus (MRSA) USA300 = assay type: cell-based, Staphylococcus aureus; conditions: S. aureus (MRSA) USA300 (R)
How it was run: as §1

[2] = system: S. aureus (MSSA) ATCC 9144; assay type: cell-based, Staphylococcus aureus; conditions: S. aureus (MSSA) ATCC 9144 (S)
How it was run: as §1

S. aureus (MRSA) 1199B = assay type: cell-based, Staphylococcus aureus; conditions: S. aureus (MRSA) 1199B (R)
How it was run: as §1

[3] = system: S. aureus (MRSA) NCTC 13616; assay type: cell-based, Staphylococcus aureus; conditions: S. aureus (MRSA) NCTC 13616 (R)
How it was run: as §1

[4] = MHB, ~5×10^5 CFU/mL, 37 °C, 20 h, OD600, min. three biological repeats
[5] = MHB, 37 °C, 20 h, OD600, min. three biological repeats
[6] = 50% growth inhibition, RPMI 1640 + 2% glucose, 37 °C, 20 h
[7] = 90% growth inhibition, RPMI 1640 + 2% glucose, 37 °C, 20 h

## CC(C)C[C@H](NC(=O)[C@H](CCCCN)NC(=O)[C@H](CO)NC(=O)[C@H](CCCCN)NC(=O)[C@H](Cc1c[nH]c2ccccc12)NC(=O)[C@H](C)NC(=O)[C@H](CCCCN)NC(=O)[C@@H](N)CCCCN)C(=O)N[C@@H](C)C(=O)N[C@@H](CCCCN)C(=O)N[C@@H](CCCCN)C(=O)N[C@@H](CC(C)C)C(=O)N[C@@H](CCCNC(=N)N)C(=O)N[C@@H](C)C(=O)N[C@@H](CCCCN)C(=O)NCC(=O)N[C@@H](CCCCN)C(N)=O [PS-PB-14a] (H-KKAWKSKLAKKLRAKGK-NH2)
E. coli NCTC 12923; [4]
  Modal MIC: > 128 µg/mL
E. coli NCTC 12923; shown in µM
  Modal MIC: > 63.8 µM
E. coli LEC001; [5]
  Modal MIC: > 128 µg/mL
E. coli LEC001; shown in µM
  Modal MIC: > 63.8 µM
C. auris TDG 1912; 50% growth inhibition, RPMI 1640 + 2% glucose, 37 °C, 20 h, OD600
  Modal MIC50: > 128 µg/mL
C. auris TDG 1912; 90% growth inhibition, RPMI 1640 + 2% glucose, 37 °C, 20 h, OD600
  Modal MIC90: > 128 µg/mL
C. auris TDG 1912; shown in µM
  Modal MIC50: > 63.8 µM
  Modal MIC90: > 63.8 µM
C. tropicalis NCPF 8760; shown in µM
  Modal MIC50: 31.9 µM
  Modal MIC90: 31.9 µM
[1]; [6]
  Modal MIC50: > 128 µg/mL
[1]; [7]
  Modal MIC90: > 128 µg/mL
[1]; shown in µM
  Modal MIC50: > 63.8 µM
  Modal MIC90: > 63.8 µM
C. glabrata NCPF 8018; [6]
  Modal MIC50: > 128 µg/mL
C. glabrata NCPF 8018; [7]
  Modal MIC90: > 128 µg/mL
C. glabrata NCPF 8018; shown in µM
  Modal MIC50: > 63.8 µM
  Modal MIC90: > 63.8 µM
C. albicans NCPF 3281; [6]
  Modal MIC50: > 128 µg/mL
C. albicans NCPF 3281; [7]
  Modal MIC90: > 128 µg/mL
C. albicans NCPF 3281; shown in µM
  Modal MIC50: > 63.8 µM
  Modal MIC90: > 63.8 µM
C. krusei NCPF 3876; [6]
  Modal MIC50: > 128 µg/mL
C. krusei NCPF 3876; [7]
  Modal MIC90: > 128 µg/mL
C. krusei NCPF 3876; shown in µM
  Modal MIC50: > 63.8 µM
  Modal MIC90: > 63.8 µM
A. baumannii AYE; [5]
  Modal MIC: > 128 µg/mL
A. baumannii AYE; shown in µM
  Modal MIC: > 63.8 µM
A. baumannii ATCC 17978; [5]
  Modal MIC: > 128 µg/mL
A. baumannii ATCC 17978; shown in µM
  Modal MIC: > 63.8 µM
K. pneumoniae M6; [5]
  Modal MIC: > 128 µg/mL
K. pneumoniae M6; shown in µM
  Modal MIC: > 63.8 µM
K. pneumoniae NCTC 13368; [5]
  Modal MIC: > 128 µg/mL
K. pneumoniae NCTC 13368; shown in µM
  Modal MIC: > 63.8 µM
S. aureus (MRSA) USA300; [5]
  Modal MIC: > 128 µg/mL
S. aureus (MRSA) USA300; shown in µM
  Modal MIC: > 63.8 µM
[2]; [5]
  Modal MIC: > 128 µg/mL
[2]; shown in µM
  Modal MIC: > 63.8 µM
S. aureus (MRSA) 1199B; [5]
  Modal MIC: > 128 µg/mL
S. aureus (MRSA) 1199B; shown in µM
  Modal MIC: > 63.8 µM
[3]; [5]
  Modal MIC: > 128 µg/mL
[3]; shown in µM
  Modal MIC: > 63.8 µM

## KCLTLRSLKKTLKFCASGRT-NH2 [X1-20a, novel amidated frog AMP derivative, Xenopus laevis]
E. coli NCTC 12923; [4]
  Modal MIC: 8 µg/mL
E. coli NCTC 12923; shown in µM
  Modal MIC: 3.4 µM
E. coli LEC001; [5]
  Modal MIC: > 128 µg/mL
E. coli LEC001; shown in µM
  Modal MIC: > 55 µM
C. auris TDG 1912; shown in µM
  Modal MIC50: > 55 µM
  Modal MIC90: > 55 µM
C. tropicalis NCPF 8760; [6]
  Modal MIC50: 16 µg/mL
C. tropicalis NCPF 8760; [7]
  Modal MIC90: 32 µg/mL
C. tropicalis NCPF 8760; shown in µM
  Modal MIC50: 6.9 µM
  Modal MIC90: 13.8 µM
[1]; [6]
  Modal MIC50: > 128 µg/mL
[1]; [7]
  Modal MIC90: > 128 µg/mL
[1]; shown in µM
  Modal MIC50: > 55 µM
  Modal MIC90: > 55 µM
C. glabrata NCPF 8018; [6]
  Modal MIC50: > 128 µg/mL
C. glabrata NCPF 8018; [7]
  Modal MIC90: > 128 µg/mL
C. glabrata NCPF 8018; shown in µM
  Modal MIC50: > 55 µM
  Modal MIC90: > 55 µM
C. albicans NCPF 3281; [6]
  Modal MIC50: > 128 µg/mL
C. albicans NCPF 3281; [7]
  Modal MIC90: > 128 µg/mL
C. albicans NCPF 3281; shown in µM
  Modal MIC50: > 55 µM
  Modal MIC90: > 55 µM
C. krusei NCPF 3876; [6]
  Modal MIC50: 64 µg/mL
C. krusei NCPF 3876; [7]
  Modal MIC90: 64 µg/mL
C. krusei NCPF 3876; shown in µM
  Modal MIC50: 27.5 µM
  Modal MIC90: 27.5 µM
A. baumannii AYE; [5]
  Modal MIC: 16 µg/mL
A. baumannii AYE; shown in µM
  Modal MIC: 6.9 µM
A. baumannii ATCC 17978; [5]
  Modal MIC: 16 µg/mL
A. baumannii ATCC 17978; shown in µM
  Modal MIC: 6.9 µM
K. pneumoniae M6; [5]
  Modal MIC: 32 µg/mL
K. pneumoniae M6; shown in µM
  Modal MIC: 13.8 µM
K. pneumoniae NCTC 13368; [5]
  Modal MIC: 64 µg/mL
K. pneumoniae NCTC 13368; shown in µM
  Modal MIC: 27.5 µM
S. aureus (MRSA) USA300; [5]
  Modal MIC: > 128 µg/mL
S. aureus (MRSA) USA300; shown in µM
  Modal MIC: > 55 µM
[2]; [5]
  Modal MIC: 16 µg/mL
[2]; shown in µM
  Modal MIC: 6.9 µM
S. aureus (MRSA) 1199B; shown in µM
  Modal MIC: > 55 µM
[3]; [5]
  Modal MIC: > 128 µg/mL
[3]; shown in µM
  Modal MIC: > 55 µM
